Assay results reported in ChEMBL document CHEMBL1201862, “PubChem BioAssay data set” (2004).
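The compound was tested at five concentrations on cells cultured in 96-well plates, with a 48-hour exposure period. GI50 marks 50% less growth.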 The source made the active and inactive calls. Rule as the data show it: active = GI50 up to about 1.1 µM and inactive = higher.

Key:
Assay in all cases: DTP human tumour cell line panel, 48 h
[1] = test system: 786-0
[2] = test system: A498
[3] = test system: A549
[4] = test system: ACHN
[5] = test system: CAKI-1
[6] = test system: CCRF-CEM
[7] = test system: COLO 205
[8] = test system: DLD-1
[9] = test system: DMS-114
[10] = test system: DMS-273
[11] = test system: EKVX
[12] = test system: HCC 2998
[13] = test system: HCT-116
[14] = test system: HCT-15
[15] = test system: HL-60
[16] = test system: HOP-18
[17] = test system: HOP-62
[18] = test system: HOP-92
[19] = test system: HT-29
[20] = test system: IGROV-1
[21] = test system: K562
[22] = test system: KM-20L2
[23] = test system: KM12
[24] = test system: LOX IMVI
[25] = test system: LXFL 529
[26] = test system: M14
[27] = test system: M19-MEL
[28] = test system: MOLT-4
[29] = test system: Malme-3M
[30] = test system: NCI-H226
[31] = test system: NCI-H23
[32] = test system: NCI-H460
[33] = test system: NCI-H522
[34] = test system: OVCAR-3
[35] = test system: OVCAR-4
[36] = test system: OVCAR-5
[37] = test system: OVCAR-8
[38] = test system: RPMI-8226
[39] = test system: RXF 393
[40] = test system: SF-268
[41] = test system: SF-295
[42] = test system: SF-539
[43] = test system: SK-MEL-28
[44] = test system: SK-MEL-2
[45] = test system: SK-MEL-5
[46] = test system: SK-OV-3
[47] = test system: SN12C
[48] = test system: SNB-19
[49] = test system: SNB-75
[50] = test system: SNB-78
[51] = test system: SW-620
[52] = test system: TK-10
[53] = test system: U-251
[54] = test system: UACC-257
[55] = test system: UACC-62
[56] = test system: UO-31
[57] = test system: XF498
[58] = test system: Hs-578T
[59] = test system: MCF7
[60] = test system: MDA-MB-231
[61] = test system: MDA-MB-435
[62] = test system: MDA-N
[63] = test system: NCI/ADR-RES
[64] = test system: PC-3
[65] = test system: SR
[66] = test system: T47D
[67] = test system: BT-549
[68] = test system: DU-145

N#C/C(=C1\OC(=N)C(c2ccccc2)C1=O)c1ccccc1 (configuration not stated)
GI50 [1]: 25 µM (inactive)
GI50 [2]: > 100 µM (inactive)
GI50 [3]: > 100 µM (inactive)
GI50 [4]: 16.3 µM (inactive)
GI50 [5]: 30.6 µM (inactive)
GI50 [6]: 15.9 µM (inactive)
GI50 [7]: 22.6 µM (inactive)
GI50 [8]: 18.3 µM (inactive)
GI50 [9]: 29.5 µM (inactive)
GI50 [10]: 49.9 µM (inactive)
GI50 [11]: 36.5 µM (inactive)
GI50 [12]: 90.2 µM (inactive)
GI50 [13]: 17.6 µM (inactive)
GI50 [14]: 22.1 µM
GI50 [15]: 23.4 µM (inactive)
GI50 [16]: 28.6 µM (inactive)
GI50 [17]: > 100 µM (inactive)
GI50 [18]: 33.8 µM (inactive)
GI50 [19]: 22.5 µM (inactive)
GI50 [20]: 30.5 µM (inactive)
GI50 [21]: 22.6 µM (inactive)
GI50 [22]: 98.6 µM (inactive)
GI50 [23]: 48.2 µM (inactive)
GI50 [24]: 33.6 µM (inactive)
GI50 [25]: 17.8 µM (inactive)
GI50 [26]: 24.4 µM (inactive)
GI50 [27]: 24 µM (inactive)
GI50 [28]: 18.7 µM (inactive)
GI50 [29]: 18.9 µM (inactive)
GI50 [30]: > 64.3 µM (inactive)
GI50 [31]: > 10 µM (inactive)
GI50 [32]: > 100 µM (inactive)
GI50 [33]: 8.81 µM (inactive)
GI50 [34]: 28.1 µM (inactive)
GI50 [35]: 40.1 µM (inactive)
GI50 [36]: > 100 µM (inactive)
GI50 [37]: 27.9 µM (inactive)
GI50 [38]: 22.9 µM (inactive)
GI50 [39]: 17.9 µM (inactive)
GI50 [40]: 48.3 µM (inactive)
GI50 [41]: > 100 µM (inactive)
GI50 [42]: > 31.6 µM (inactive)
GI50 [43]: 13.3 µM (inactive)
GI50 [44]: > 52.2 µM (inactive)
GI50 [45]: 26.9 µM (inactive)
GI50 [46]: > 100 µM (inactive)
GI50 [47]: 35 µM (inactive)
GI50 [48]: > 100 µM (inactive)
GI50 [49]: 28.3 µM (inactive)
GI50 [50]: > 77.1 µM (inactive)
GI50 [51]: 23.1 µM (inactive)
GI50 [52]: 29.7 µM (inactive)
GI50 [53]: > 100 µM (inactive)
GI50 [54]: 23 µM (inactive)
GI50 [55]: 22.2 µM (inactive)
GI50 [56]: 19.6 µM (inactive)
GI50 [57]: 16.9 µM (inactive)

CN(C)CC1CCC(CN(C)C)C1=O (configuration not stated)
GI50 [1]: 1.93 µM (inactive)
GI50 [2]: 25.4 µM (inactive)
GI50 [3]: 18.7 µM (inactive)
GI50 [4]: 4.7 µM (inactive)
GI50 [5]: 0.736 µM (active)
GI50 [7]: 0.608 µM (active)
GI50 [8]: 2.05 µM (inactive)
GI50 [9]: 5.92 µM (inactive)
GI50 [10]: 17.1 µM (inactive)
GI50 [11]: 4.53 µM (inactive)
GI50 [12]: 18 µM (inactive)
GI50 [13]: 2.27 µM (inactive)
GI50 [14]: 1.43 µM
GI50 [15]: 0.294 µM (active)
GI50 [16]: 18.8 µM (inactive)
GI50 [17]: > 52.5 µM (inactive)
GI50 [18]: 2.24 µM (inactive)
GI50 [19]: 6.64 µM (inactive)
GI50 [58]: 3.06 µM (inactive)
GI50 [20]: 7.94 µM (inactive)
GI50 [21]: 0.418 µM (active)
GI50 [22]: 17.4 µM (inactive)
GI50 [23]: 10.3 µM (inactive)
GI50 [24]: 4.54 µM (inactive)
GI50 [25]: 1.47 µM (inactive)
GI50 [26]: 2.91 µM (inactive)
GI50 [27]: 3.43 µM (inactive)
GI50 [59]: 0.458 µM (active)
GI50 [60]: 2.07 µM (inactive)
GI50 [61]: 20 µM (inactive)
GI50 [62]: 2.01 µM (inactive)
GI50 [28]: 0.594 µM (active)
GI50 [29]: 1.73 µM (inactive)
GI50 [30]: 19.7 µM (inactive)
GI50 [31]: 4.05 µM (inactive)
GI50 [32]: 20.8 µM (inactive)
GI50 [33]: 0.114 µM (active)
GI50 [63]: 23 µM (inactive)
GI50 [34]: 3.81 µM (inactive)
GI50 [35]: 5.32 µM (inactive)
GI50 [36]: 9.73 µM (inactive)
GI50 [37]: 3.31 µM (inactive)
GI50 [64]: 1.98 µM (inactive)
GI50 [38]: 0.541 µM (active)
GI50 [39]: 4.19 µM (inactive)
GI50 [40]: 19.5 µM (inactive)
GI50 [41]: 18.3 µM (inactive)
GI50 [42]: 18.4 µM (inactive)
GI50 [43]: 8.65 µM (inactive)
GI50 [44]: 14.1 µM (inactive)
GI50 [45]: 8.26 µM (inactive)
GI50 [46]: 16.8 µM (inactive)
GI50 [47]: 6.89 µM (inactive)
GI50 [48]: > 100 µM (inactive)
GI50 [49]: 20.7 µM (inactive)
GI50 [50]: 5.83 µM (inactive)
GI50 [65]: 2.6 µM (inactive)
GI50 [51]: 0.873 µM (active)
GI50 [66]: 1.39 µM (inactive)
GI50 [52]: 14.7 µM (inactive)
GI50 [53]: 24.3 µM (inactive)
GI50 [54]: 8.34 µM (inactive)
GI50 [55]: 13.9 µM (inactive)
GI50 [56]: 7.67 µM (inactive)
GI50 [57]: 5.69 µM (inactive)

CC(SC1=CC(=O)c2c(Cl)ccc(O)c2C1=O)C(=O)O (configuration not stated)
GI50 [2]: 67.1 µM (inactive)
GI50 [3]: 22.4 µM (inactive)
GI50 [6]: 5.25 µM (inactive)
GI50 [7]: 21.3 µM (inactive)
GI50 [8]: 17.3 µM (inactive)
GI50 [9]: 18.2 µM (inactive)
GI50 [10]: 18.1 µM (inactive)
GI50 [11]: 21.3 µM (inactive)
GI50 [12]: 21.3 µM (inactive)
GI50 [13]: 17.8 µM (inactive)
GI50 [14]: 17.1 µM
GI50 [15]: 2.79 µM (inactive)
GI50 [16]: 27.5 µM (inactive)
GI50 [18]: 21.6 µM (inactive)
GI50 [19]: > 10 µM (inactive)
GI50 [20]: 17.3 µM (inactive)
GI50 [21]: 18.7 µM (inactive)
GI50 [22]: 74.6 µM (inactive)
GI50 [23]: 18 µM (inactive)
GI50 [24]: 10.1 µM (inactive)
GI50 [25]: 16 µM (inactive)
GI50 [28]: 18.5 µM (inactive)
GI50 [29]: 19.7 µM (inactive)
GI50 [30]: 43.3 µM (inactive)
GI50 [31]: > 10 µM (inactive)
GI50 [32]: 26.6 µM (inactive)
GI50 [37]: 18.2 µM (inactive)
GI50 [38]: 19.8 µM (inactive)
GI50 [39]: > 10 µM (inactive)
GI50 [40]: 20.2 µM (inactive)
GI50 [41]: 19 µM (inactive)
GI50 [42]: 18.3 µM (inactive)
GI50 [43]: 18.5 µM (inactive)
GI50 [44]: 17.5 µM (inactive)
GI50 [45]: 14.3 µM (inactive)
GI50 [47]: 16.7 µM (inactive)
GI50 [49]: 16.9 µM (inactive)
GI50 [50]: 12.6 µM (inactive)
GI50 [65]: 6.56 µM (inactive)
GI50 [51]: 19.4 µM (inactive)
GI50 [52]: 20.7 µM (inactive)
GI50 [53]: 17.7 µM (inactive)
GI50 [54]: 15.8 µM (inactive)
GI50 [57]: 19.9 µM (inactive)

N[C@H](C(=O)O)[C@H]1ON=C(Cl)[C@@H]1O
GI50 [1]: 6.61 µM (inactive)
GI50 [3]: 1.56 µM (inactive)
GI50 [4]: 10.7 µM (inactive)
GI50 [67]: 3.97 µM (inactive)
GI50 [5]: 1.77 µM (inactive)
GI50 [6]: 0.966 µM (active)
GI50 [7]: 0.59 µM (active)
GI50 [8]: 1.09 µM (active)
GI50 [9]: 6.61 µM (inactive)
GI50 [10]: 1.16 µM (inactive)
GI50 [68]: 27.4 µM (inactive)
GI50 [11]: 5.11 µM (inactive)
GI50 [12]: 1.15 µM (inactive)
GI50 [13]: 2.36 µM (inactive)
GI50 [14]: 1.21 µM
GI50 [15]: 3.46 µM (inactive)
GI50 [16]: > 360 µM (inactive)
GI50 [17]: 2.13 µM (inactive)
GI50 [18]: 27.4 µM (inactive)
GI50 [19]: 0.286 µM (active)
GI50 [58]: 8.65 µM (inactive)
GI50 [20]: 2.84 µM (inactive)
GI50 [21]: 1.63 µM (inactive)
GI50 [22]: 0.343 µM (active)
GI50 [23]: 0.612 µM (active)
GI50 [24]: 8.71 µM (inactive)
GI50 [26]: 6.03 µM (inactive)
GI50 [27]: 1.87 µM (inactive)
GI50 [59]: 2.6 µM (inactive)
GI50 [60]: 12.2 µM (inactive)
GI50 [61]: 3.56 µM (inactive)
GI50 [62]: 2.95 µM (inactive)
GI50 [28]: 1.38 µM (inactive)
GI50 [29]: 24.1 µM (inactive)
GI50 [30]: 45.1 µM (inactive)
GI50 [31]: 3.52 µM (inactive)
GI50 [32]: 2.76 µM (inactive)
GI50 [33]: 0.942 µM (active)
GI50 [63]: 6.49 µM (inactive)
GI50 [34]: 18.5 µM (inactive)
GI50 [35]: 29.3 µM (inactive)
GI50 [36]: 5.6 µM (inactive)
GI50 [37]: 2.95 µM (inactive)
GI50 [64]: 7.03 µM (inactive)
GI50 [38]: 2.43 µM (inactive)
GI50 [39]: 58.3 µM (inactive)
GI50 [40]: 1.5 µM (inactive)
GI50 [41]: 5.97 µM (inactive)
GI50 [42]: 1.28 µM (inactive)
GI50 [43]: 3.24 µM (inactive)
GI50 [44]: 56.1 µM (inactive)
GI50 [45]: 0.929 µM (active)
GI50 [46]: 14.3 µM (inactive)
GI50 [47]: 4.63 µM (inactive)
GI50 [48]: 5.58 µM (inactive)
GI50 [49]: 26.2 µM (inactive)
GI50 [50]: 28.1 µM (inactive)
GI50 [65]: 1.73 µM (inactive)
GI50 [51]: 2.16 µM (inactive)
GI50 [66]: 33.6 µM (inactive)
GI50 [52]: > 28.5 µM (inactive)
GI50 [53]: 3.3 µM (inactive)
GI50 [54]: 14.7 µM (inactive)
GI50 [55]: 3.3 µM (inactive)
GI50 [56]: 18.3 µM (inactive)
GI50 [57]: 59 µM (inactive)
